In brackets after ≈: the same amount, converted by molar mass.
Key:
Format in all cases: functional
Candida albicans [1] = assay: Antifungal activity against Candida albicans assessed as reduction in fungal cell growth incubated for 24 and 72 hrs by cup plate method
Aspergillus flavus = assay: Antifungal activity against Aspergillus flavus assessed as reduction in fungal cell growth incubated for 24 and 72 hrs by cup plate method
Fusarium oxysporum = assay: Antifungal activity against Fusarium oxysporum assessed as reduction in fungal cell growth incubated for 24 and 72 hrs by cup plate method
Cryptococcus neoformans = assay: Antifungal activity against Cryptococcus neoformans LA314 assessed as reduction in fungal cell growth incubated for 48 hrs by broth microdilution method; conditions: LA314, 48 h
Nakaseomyces glabratus = assay: Antifungal activity against Candida glabrata assessed as reduction in fungal cell growth incubated for 48 hrs by broth microdilution method
Candida parapsilosis = assay: Antifungal activity against Candida parapsilosis ATCC 22019 assessed as reduction in fungal cell growth incubated for 48 hrs by broth microdilution method; conditions: Lodderomyces parapsilosis, ATCC 22019, 48 h
Pichia kudriavzevii = assay: Antifungal activity against Candida krusei assessed as reduction in fungal cell growth incubated for 48 hrs by broth microdilution method
Candida albicans [2] = assay: Antifungal activity against Candida albicans assessed as reduction in fungal cell growth incubated for 48 hrs by broth microdilution method
Candida tropicalis = assay: Antifungal activity against Candida tropicalis assessed as reduction in fungal cell growth incubated for 48 hrs by broth microdilution method
Aspergillus niger = assay: Antifungal activity against Aspergillus niger assessed as reduction in fungal cell growth incubated for 72 hrs by broth microdilution method

Compound	MIC (Candida albicans [1]) [µg/mL]	MIC (Aspergillus flavus) [µg/mL]	MIC (Fusarium oxysporum) [µg/mL]	MIC (Cryptococcus neoformans) [µg/mL]	MIC (Nakaseomyces glabratus) [µg/mL]	MIC (Candida parapsilosis) [µg/mL]	MIC (Pichia kudriavzevii) [µg/mL]	MIC (Candida albicans [2]) [µg/mL]	MIC (Candida tropicalis) [µg/mL]	MIC (Aspergillus niger) [µg/mL]
CCOC(=O)C(C#N)C(c1cc2ccc(C)cc2n2nnnc12)P(=O)(OCC)OCC (configuration not stated)	10 to 25 (≈ 22.5 to 56.1 µM)	10 to 25 (≈ 22.5 to 56.1 µM)	10 to 25 (≈ 22.5 to 56.1 µM)	–	–	–	–	–	–	–
OC(Cn1cncn1)(Cn1nnnc1CCN1CCN(c2ccc(Cc3ccccc3)cc2)CC1)c1ccc(F)cc1F (configuration not stated)	–	–	–	0.5 to 16 (≈ 0.854 to 27.3 µM)	0.5 to 16 (≈ 0.854 to 27.3 µM)	0.5 to 16 (≈ 0.854 to 27.3 µM)	0.5 to 16 (≈ 0.854 to 27.3 µM)	0.5 to 16 (≈ 0.854 to 27.3 µM)	0.5 to 16 (≈ 0.854 to 27.3 µM)	0.5 to 16 (≈ 0.854 to 27.3 µM)
CC(n1nnnc1CCN1CCN(c2ccccc2)CC1)C(O)(Cn1cncn1)c1ccc(F)cc1F (configuration not stated)	–	–	–	0.5 to 16 (≈ 0.981 to 31.4 µM)	0.5 to 16 (≈ 0.981 to 31.4 µM)	0.5 to 16 (≈ 0.981 to 31.4 µM)	0.5 to 16 (≈ 0.981 to 31.4 µM)	0.5 to 16 (≈ 0.981 to 31.4 µM)	0.5 to 16 (≈ 0.981 to 31.4 µM)	0.5 to 16 (≈ 0.981 to 31.4 µM)
OC(Cn1cncn1)(Cn1nnnc1CCN1CCN(c2c(Cl)cccc2Cl)CC1)c1ccc(F)cc1F (configuration not stated)	–	–	–	0.5 to 16 (≈ 0.886 to 28.3 µM)	0.5 to 16 (≈ 0.886 to 28.3 µM)	0.5 to 16 (≈ 0.886 to 28.3 µM)	0.5 to 16 (≈ 0.886 to 28.3 µM)	0.5 to 16 (≈ 0.886 to 28.3 µM)	0.5 to 16 (≈ 0.886 to 28.3 µM)	0.5 to 16 (≈ 0.886 to 28.3 µM)
COc1ccc(N2CCN(CCc3nnnn3[C@@H](C)[C@](O)(Cn3cncn3)c3ccc(F)cc3F)CC2)cc1	–	–	–	0.12 to 16 (≈ 0.222 to 29.7 µM)	0.12 to 16 (≈ 0.222 to 29.7 µM)	0.12 to 16 (≈ 0.222 to 29.7 µM)	0.12 to 16 (≈ 0.222 to 29.7 µM)	0.12 to 16 (≈ 0.222 to 29.7 µM)	0.12 to 16 (≈ 0.222 to 29.7 µM)	0.12 to 16 (≈ 0.222 to 29.7 µM)
COc1cccc2c1cc(C1CC(c3cc(Br)ccc3O)=NN1)c1nnnn12 (configuration not stated)	25 to 100 (≈ 56.9 to 228 µM)	25 to 100 (≈ 56.9 to 228 µM)	25 to 100 (≈ 56.9 to 228 µM)	–	–	–	–	–	–	–
Cc1ccc2c(c1)cc(C1CC(c3cc(Br)ccc3O)=NN1)c1nnnn12 (configuration not stated)	25 to 100 (≈ 59.1 to 236 µM)	25 to 100 (≈ 59.1 to 236 µM)	25 to 100 (≈ 59.1 to 236 µM)	–	–	–	–	–	–	–
COc1ccc(N2CCN(CCc3nnnn3C(C)C(O)(Cn3cncn3)c3ccc(F)cc3F)CC2)cc1 (configuration not stated)	–	–	–	0.5 to 16 (≈ 0.927 to 29.7 µM)	0.5 to 16 (≈ 0.927 to 29.7 µM)	0.5 to 16 (≈ 0.927 to 29.7 µM)	0.5 to 16 (≈ 0.927 to 29.7 µM)	0.5 to 16 (≈ 0.927 to 29.7 µM)	0.5 to 16 (≈ 0.927 to 29.7 µM)	0.5 to 16 (≈ 0.927 to 29.7 µM)

The remaining lines, values ahead:

MIC (Candida albicans [1]) [µg/mL]	MIC (Aspergillus flavus) [µg/mL]	MIC (Fusarium oxysporum) [µg/mL]	MIC (Cryptococcus neoformans) [µg/mL]	MIC (Nakaseomyces glabratus) [µg/mL]	MIC (Candida parapsilosis) [µg/mL]	MIC (Pichia kudriavzevii) [µg/mL]	MIC (Candida albicans [2]) [µg/mL]	MIC (Candida tropicalis) [µg/mL]	MIC (Aspergillus niger) [µg/mL]	Compound
–	–	–	0.25 to 16 (≈ 0.49 to 31.3 µM)	0.25 to 16 (≈ 0.49 to 31.3 µM)	0.25 to 16 (≈ 0.49 to 31.3 µM)	0.25 to 16 (≈ 0.49 to 31.3 µM)	0.25 to 16 (≈ 0.49 to 31.3 µM)	0.25 to 16 (≈ 0.49 to 31.3 µM)	0.25 to 16 (≈ 0.49 to 31.3 µM)	C[C@H](n1nnc(CCN2CCN(c3ccccn3)CC2)n1)[C@](O)(Cn1cncn1)c1ccc(F)cc1F
–	–	–	0.25 to 16 (≈ 0.491 to 31.4 µM)	0.25 to 16 (≈ 0.491 to 31.4 µM)	0.25 to 16 (≈ 0.491 to 31.4 µM)	0.25 to 16 (≈ 0.491 to 31.4 µM)	0.25 to 16 (≈ 0.491 to 31.4 µM)	0.25 to 16 (≈ 0.491 to 31.4 µM)	0.25 to 16 (≈ 0.491 to 31.4 µM)	C[C@H](n1nnc(CCN2CCN(c3ccccc3)CC2)n1)[C@](O)(Cn1cncn1)c1ccc(F)cc1F
–	–	–	0.25 to 16 (≈ 0.46 to 29.4 µM)	0.25 to 16 (≈ 0.46 to 29.4 µM)	0.25 to 16 (≈ 0.46 to 29.4 µM)	0.25 to 16 (≈ 0.46 to 29.4 µM)	0.25 to 16 (≈ 0.46 to 29.4 µM)	0.25 to 16 (≈ 0.46 to 29.4 µM)	0.25 to 16 (≈ 0.46 to 29.4 µM)	C[C@H](n1nnc(CCN2CCN(c3ccccc3Cl)CC2)n1)[C@](O)(Cn1cncn1)c1ccc(F)cc1F
–	–	–	0.25 to 16 (≈ 0.46 to 29.4 µM)	0.25 to 16 (≈ 0.46 to 29.4 µM)	0.25 to 16 (≈ 0.46 to 29.4 µM)	0.25 to 16 (≈ 0.46 to 29.4 µM)	0.25 to 16 (≈ 0.46 to 29.4 µM)	0.25 to 16 (≈ 0.46 to 29.4 µM)	0.25 to 16 (≈ 0.46 to 29.4 µM)	C[C@H](n1nnc(CCN2CCN(c3ccc(Cl)cc3)CC2)n1)[C@](O)(Cn1cncn1)c1ccc(F)cc1F
